This is an account of results in ChEMBL document CHEMBL1201862, “PubChem BioAssay data set” (2004).

Some test systems named below: BT-549; COLO 205; DU-145; HCC 2998; HCT-116; HL-60; HOP-92; KM12; MCF7; NCI-H23; NCI/ADR-RES; OVCAR-3; OVCAR-4; OVCAR-5; RXF 393; SNB-75; SW-620; UACC-257; UO-31; MDA-MB-231.
Common to all, as to assay: growth of human tumour cells (NCI), 48 h

Each structure is given as a SMILES string.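 The compound was tested at five concentrations on cells cultured in 96-well plates, with a 48-hour exposure period. GI50 marks 50% less growth.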 The source made the active and inactive calls. No stated cut-off is given here; in the data, active = GI50 up to about 1.1 µM and inactive = higher.

Regarding `CCCCCCCCCC1(N=[N+]=[N-])C(=O)c2ccccc2N(C)C1=O` (stereo unspecified), the GI50 is 28.1 µM (inactive) with BT-549; 32 µM (inactive) in the experiment with COLO 205; 28.7 µM (inactive) with DU-145; 33 µM (inactive) in the experiment with HCC 2998; 21.1 µM (inactive) in the experiment with HCT-116; > 100 µM (inactive) in the experiment with HL-60. The GI50 was 20.2 µM (inactive) with HOP-92; 48 µM (inactive) with KM12; 29.9 µM (inactive) in the experiment with MCF7; 25.6 µM (inactive) in the experiment with NCI-H23; 26.7 µM (inactive) with NCI/ADR-RES; 25 µM (inactive) in the experiment on OVCAR-3. The GI50 with OVCAR-4 is 67.1 µM (inactive); in the experiment on OVCAR-5, 31.9 µM (inactive); with RXF 393, 22.6 µM (inactive); in the experiment on SNB-75 it was 29.9 µM (inactive); in the experiment on SW-620 it was 19.3 µM (inactive); in the experiment with UACC-257, 32.9 µM (inactive). Besides, the GI50 in the experiment on UO-31 is 19.4 µM (inactive).

On to `O=C(Cn1c2ccc(Br)cc2c2nc3ccccc3nc21)Nc1ccccc1`, for which the GI50 in the experiment with BT-549 was > 100 µM (inactive); in the experiment on COLO 205, 50.6 µM (inactive); in the experiment on DU-145, 59.2 µM (inactive); with HCC 2998, 34.8 µM (inactive); in the experiment on HCT-116, 14.5 µM (inactive); in the experiment with HOP-92, 14.1 µM (inactive). For the same compound, the GI50 in the experiment with KM12 is 56.8 µM (inactive); with MDA-MB-231, 13.3 µM (inactive); with NCI-H23, 28 µM (inactive); in the experiment on NCI/ADR-RES, 20 µM (inactive); in the experiment with OVCAR-3, > 100 µM (inactive); with OVCAR-4, 20.9 µM (inactive). Also, the GI50 is 47 µM (inactive) in the experiment on OVCAR-5; 20.2 µM (inactive) in the experiment with RXF 393; 21.3 µM (inactive) in the experiment on SNB-75; 24.8 µM (inactive) in the experiment with SW-620; 78.2 µM (inactive) in the experiment with UACC-257; 42.2 µM (inactive) with UO-31.

Consider `Oc1ccc2ccccc2c1/N=N/c1ccc(Br)cc1`, for which the GI50 in the experiment on BT-549 was > 100 µM (inactive); in the experiment on COLO 205, > 100 µM (inactive); in the experiment with DU-145, > 100 µM (inactive); in the experiment on HCT-116 it was > 100 µM (inactive); in the experiment on HL-60, > 100 µM (inactive); in the experiment on HOP-92, 35.3 µM (inactive). Also, the GI50 in the experiment with KM12 is 77.6 µM (inactive); in the experiment with MDA-MB-231, > 100 µM (inactive); with NCI-H23, > 100 µM (inactive); in the experiment on NCI/ADR-RES it was > 100 µM (inactive); with OVCAR-3, 86.9 µM (inactive); in the experiment with OVCAR-4, 27.8 µM (inactive). For the same compound, the GI50 was 63 µM (inactive) with OVCAR-5; > 100 µM (inactive) in the experiment with RXF 393; 95.5 µM (inactive) with SNB-75; > 100 µM (inactive) in the experiment with SW-620; > 100 µM (inactive) in the experiment on UACC-257; > 100 µM (inactive) in the experiment on UO-31.

On to `CCOC(=O)c1c(C)nc2c(c1-c1cn(-c3ccccc3)nc1-c1ccccc1)C(=O)c1ccccc1-2`, for which the GI50 in the experiment on BT-549 was > 100 µM (inactive); with COLO 205 it was > 100 µM (inactive); in the experiment with DU-145, > 100 µM (inactive); with HCT-116 it was > 100 µM (inactive); in the experiment on HOP-92, > 100 µM (inactive); with KM12 it was 0.337 µM (active). For the same compound, the GI50 in the experiment with MDA-MB-231, in the experiment with NCI-H23, with NCI/ADR-RES, in the experiment on OVCAR-3, in the experiment on OVCAR-4 and in the experiment on OVCAR-5 was > 100 µM (inactive) each time. Further, the GI50 in the experiment on RXF 393, in the experiment on SNB-75, in the experiment on SW-620 and in the experiment with UACC-257 was > 100 µM (inactive) throughout.
